Data set [1] deals with humans. To be noted: cited from earlier work.
Data set [2] has as its system wild type zebrafish embryos. Nature of the data set: in vivo. It counts as in vivo. To be noted: embryos incubated 3 to 96 hpf; 5 logarithmic concentrations 0.1 µM to 1 mM; 1% DMSO. An excerpt:
(§1) Several issues were considered when planning the experimental protocol. The main concern was that drug-induced mortality and/or developmental toxicity (teratogenicity) could mask possible organ-toxicities appearing later in development. […] This preliminary assay allowed for the identification of non-mortal/non-teratogenic concentrations—no observed effect concentration (NOEC)—to use in the following assays. The hypothesis is that NOEC could affect organ physiology (organ toxicity), while uncoupled from putative developmental toxicity side-effects affecting organ development or function. Another consideration was to start drug incubations at 96 hours post fertilization (hpf), when the analysed organs are close to or already developed (Figure 1B). The overall aim is to understand the drug impact on organ physiology and function rather than early embryogenesis. The third consideration was to organize the sequential organ evaluation during the experimental and drug incubation time.
(§2) 1% DMSO, which is the constant solvent concentration in all conditions, was used as the negative control.
(§3) Thus, 20 wild type (wt) zebrafish embryos per condition were incubated with tested compounds from 3 to 96 hpf. The test was performed in 5 logarithmic concentrations per drug (from 0.1 µM to 1 mM). Each larva was analysed for mortality, body deformity, edema, tail detachment, pigmentation, heart activity, heart edema, and motor activity. […] DMSO 1% was used as the negative control in all experiments.

Data set [3] concerns zebrafish larvae heart. Nature of the data set: ZeGlobalTox cardiotoxicity evaluation (heart video, ZeCardio software). In kind it is in vivo, zebrafish (Danio rerio). To be noted: 100 hpf, 4 h after drug incubation at NOEC (haloperidol 10 µM). The protocol:
Four cardiac parameters were evaluated to assess whether a compound was cardiotoxic: heart rate (beats per minute, BPM), QTc prolongation, ejection fraction (EJF), and cardiac arrest. […] 1% DMSO was used as the negative control.
Cardiotoxicity evaluation was performed from 96 hpf, when the zebrafish heartbeat is already stabilised, so the analysis might not be altered by unstable beating. Zebrafish hearts were video-recorded at 4 h after drug incubation (100 hpf) and analysed using the ZeCardio® β software (Figure 3A).
After 4 h of drug incubation (100 hpf), zebrafish larvae were anesthetized by immersion in […] tricaine methanesulfonate (A4050, Sigma-Aldrich, Saint Louis, MO, USA)/E3 solution. […] The 1% DMSO treated embryos were used as negative cardiotoxic controls. Embryos were positioned in an agarose based mold to allow their appropriate orientation under the fluorescence stereo microscope (Olympus MVX10). Individual fluorescent hearts were recorded during 60 s each (Figure 6A). Videos were acquired with a high-speed recording camera (Hamamatsu C11440 ORCA-flash 2.8) and analysed with the ZeCardio® β software to extract different cardiac parameters—heart rate, cardiac arrest, QTc prolongation, and Ejection Fraction (EJF) (Figure 6B).
ZeCardio® β software, developed by ZeClinics and currently in β status, provides a graphical user interface (GUI) that facilitates the semi-automatic analysis of living heart videos. Interactive analysis of the different parameters functions as follows: The user draws a line along the heart axis, from ventricle to atrium, to initiate the calculation. […] All lines can be subjected to modification of their angles and lengths.
Heart beat frequency for each chamber is detected and frequencies are presented in the GUI as a mean. A plot distribution is used for assessing beat stability over time (Figure 6F). In the same fashion, chamber specific cardiac arrest is measured as the longest beating pause (Figure 6H). No beating chambers and/or incorrect bpm can be manually flagged when detected.
For calculation of the QTc interval (linearly corrected QT interval), the Framingham formula (QTc = QT + 0.154 (1 − RR)) was adjusted for zebrafish as QTc = QT + 0.154 (2.66 − RR). RR = 6.6 ms/measured bpm is applied (Figure 6G). Finally, the Ejection Fraction, calculated as the maximal dilatation (the diastolic diameter, DD) versus the maximal contraction (systolic diameter, SD) is measured in % as EF% = (DD − SD)/DD*100 (Figure 6G). Computed values for the described parameters were exported in .csv format (Figure 6H).

Data set [4] can be described thus: in vivo. It counts as in vivo. To be noted: zebrafish, in vivo; mortality; embryos incubated 3 to 96 hpf; 5 logarithmic concentrations 0.1 µM to 1 mM; 1% DMSO.
From the text: as §1, §2, §3

[5] abbreviates: known toxicity in humans, ref TOXNET (HSDB), Side effects (EMBL), drugs.com, [22],[30],[31],[34],[35].
The mark [6] stands for this setting: known toxicity in humans, ref TOXNET (HSDB), Side effects (EMBL), drugs.com, ema.europa, [19],[20],[21].
The mark [7] stands for this setting: known toxicity in humans, ref TOXNET (HSDB), Side effects (EMBL), drugs.com, ema.europa, [24],[26],[27],[32],[33].

The source of these data is article PMC5412445, “ZeGlobalTox: An Innovative Approach to Address Organ Drug Toxicity Using Zebrafish” (International Journal of Molecular Sciences, 2017).

The structures appear in SMILES notation. Read-outs that look alike come from different tables or passages of the source.

In the case of `CCO` [Ethanol], the “Neurotoxicity (toxicity in humans)” value in data set [1] (setting [5]) was “Toxic ^1”. Further, the “Cardiotoxicity (toxicity in humans)” value in data set [1] (setting [6]) is reported as “Toxic ^1”. The “Hepatotoxicity (toxicity in humans)” value in data set [1] (setting [7]) was “Toxic [26, 27]”.
Take `N[C@@H](CS)C(=O)O` [L-Cysteine, L-cysteine]: in data set [2], the “96 hpf NOEC” value worked out at 1000.00 µM.
As for `NC(=O)CC[C@H](N)C(=O)O` [L-Glutamine, L-glutamine], the “Neurotoxicity (toxicity in humans)” value in data set [1] (setting [5]) was “Safe”. Further, in data set [1] (setting [6]), the “Cardiotoxicity (toxicity in humans)” value was “Safe”. The “Hepatotoxicity (toxicity in humans)” value in data set [1] (setting [7]) was “Safe”.
With `O=C(CCCN1CCC(O)(c2ccc(Cl)cc2)CC1)c1ccc(F)cc1` [Haloperidol], the “Neurotoxicity (toxicity in humans)” value in data set [1] (setting [5]) is on record as “Toxic ^1,2,3”. In addition, the “Cardiotoxicity (toxicity in humans)” value in data set [1] (setting [6]) is “Toxic ^1,2,3 [19, 20, 21]”. Further, the “Hepatotoxicity (toxicity in humans)” value in data set [1] (setting [7]) is on record as “Safe”. For the same molecule, in data set [3], the “Heart rate (beats per minute) compared to DMSO-only” value is listed as “decreased the heart rate” and the “QTc interval compared to DMSO-only” value is recorded as “QTc interval prolongation”.
The term LC50 denotes the concentration that kills 50% of the test population. Low values mean greater toxicity, high ones lower toxicity. For the molecule `CCN(CC)c1ccc(C=O)cc1` [DEAB, 4-diethylaminobenzaldehyde], in data set [2], the “96 hpf LOEC” value is listed as 10.00 µM and the “96 hpf NOEC” value is recorded as 1.00 µM. In data set [4], this molecule showed an LC50 of 186 µM.
Turning to `OC[C@H]1OC(O)[C@H](O)[C@@H](O)[C@@H]1O` (stereo partly drawn) [D-(+)-glucose], the “96 hpf NOEC” value in data set [2] is on record as 1000.00 µM. In data set [1] (in vivo), the “Cardiotoxicity (toxicity in humans)” value is recorded as “Safe”, the “Hepatotoxicity (toxicity in humans)” value is “Safe” and the “Neurotoxicity (toxicity in humans)” value is listed as “Safe”.
Take `[Cl-].[Na+]` [NaCl, sodium chloride]: in data set [2], the “96 hpf NOEC” value was determined as 1000.00 µM. The “Neurotoxicity (toxicity in humans)” value in data set [1] (setting [5]) was “Safe”. Also, the “Cardiotoxicity (toxicity in humans)” value in data set [1] (setting [6]) is reported as “Safe”. For the same molecule, the “Hepatotoxicity (toxicity in humans)” value in data set [1] (setting [7]) was “Safe”.
For the molecule `CN(CCOc1ccc(NS(C)(=O)=O)cc1)CCc1ccc(NS(C)(=O)=O)cc1` [Dofetilide, dofetilide], in data set [2], the “96 hpf LOEC” value came out at 100.00 µM. Besides, the “Neurotoxicity (toxicity in humans)” value in data set [1] (setting [5]) is given as “Safe”. Further, the “Cardiotoxicity (toxicity in humans)” value in data set [1] (setting [6]) was “Toxic ^1,2,3”. Moreover, in data set [1] (setting [7]), the “Hepatotoxicity (toxicity in humans)” value is on record as “Safe”. For the same molecule, in data set [3], the “Heart rate (beats per minute) compared to DMSO-only” value is “decreased the heart rate” and the “Longest cardiac arrest compared to DMSO-only” value is listed as “Longer cardiac arrest”.
For `CCOC(=O)Nc1ccc(NCc2ccc(F)cc2)nc1N` [Flupirtine, flupirtine], in data set [2], the “96 hpf LOEC” value came out at 100.00 µM and the “96 hpf NOEC” value was found to be 10.00 µM. Also, in data set [4], the LC50 came to 136 µM. Further, in data set [1] (setting [5]), the “Neurotoxicity (toxicity in humans)” value is “Safe”. In addition, the “Cardiotoxicity (toxicity in humans)” value in data set [1] (setting [6]) is recorded as “Safe”. Further, the “Hepatotoxicity (toxicity in humans)” value in data set [1] (setting [7]) was “Toxic ^4”.
For `O=C(O)c1cn(C2CC2)c2cc(N3CCNCC3)c(F)cc2c1=O` [Ciprofloxacin, ciprofloxacin], in data set [3], the “Heart rate (beats per minute) compared to DMSO-only” value was “increased heart rates” and the “Longest cardiac arrest compared to DMSO-only” value is recorded as “no differences”.
On to `Cc1ccc(C(=O)Nc2ccc(S(=O)(=O)O)c3cc(S(=O)(=O)O)cc(S(=O)(=O)O)c23)cc1NC(=O)c1cccc(NC(=O)Nc2cccc(C(=O)Nc3cc(C(=O)Nc4ccc(S(=O)(=O)O)c5cc(S(=O)(=O)O)cc(S(=O)(=O)O)c45)ccc3C)c2)c1` [Suramin, suramin], for which, in data set [2], the “96 hpf LOEC” value was determined as 1000 µM. The molecule also had an LC50 in data set [4] of 197 µM. Moreover, in data set [1] (setting [5]), the “Neurotoxicity (toxicity in humans)” value was “Toxic [34, 35]”. In addition, in data set [1] (setting [6]), the “Cardiotoxicity (toxicity in humans)” value was “Safe”. The “Hepatotoxicity (toxicity in humans)” value in data set [1] (setting [7]) is “Safe”.
Consider `CC(=O)O[C@H]1C[C@@]2(C)[C@@H](C[C@@H](O)[C@H]3[C@@]4(C)CC[C@@H](O)[C@@H](C)[C@@H]4CC[C@@]32C)/C1=C(\CCC=C(C)C)C(=O)O` [Fusidic Acid, fusidic acid], for which the “96 hpf LOEC” value in data set [2] is given as 100.00 µM. The molecule also registered a median lethal concentration (LC50) in data set [4] of 124 µM. In data set [1] (setting [5]), the “Neurotoxicity (toxicity in humans)” value is “Safe”. Moreover, the “Cardiotoxicity (toxicity in humans)” value in data set [1] (setting [6]) is reported as “Safe”. Moreover, the “Hepatotoxicity (toxicity in humans)” value in data set [1] (setting [7]) is “Toxic [32, 33]”.
